What was measured:
[1] = Transfer rate assessment, liquid formulation to aerosol (Cambridge filter pad, LC-HR-MS); details: 30 puffs collected
[2] = Thermal decomposition during thermal aerosolization (LC-HR-MS); details: LC-HR-MS spectra of aerosol sample
[3] = Frisk-Holmberg et al., Cui et al.; cited from earlier work
[4] = system: SARS-CoV-2 clinically isolated strain; details: Vero cells, 24 hours, Yao et al.; cited from earlier work
[5] = Aerosol particle size distribution (Aerodynamic Particle Sizer); details: thermal aerosolization 200-220° C., 40 mg/mL in propylene glycol
[6] = system: novel coronavirus (2019-nCoV); details: cited from earlier work
[7] = system: 3D organotypic human bronchial cultures; test: Transepithelial electrical resistance (TEER); details: post 24 h exposure

Which results are given for `CCN(CCO)CCCC(C)Nc1ccnc2cc(Cl)ccc12` (stereo not shown) [hydroxychloroquine]?
amount per puff in aerosol ([1]; 100 mg/mL hydroxychloroquine liquid formulation): 330.32 µg; decomposition during thermal aerosolization [2]: no decomposition

What does the source list for `CCN(CC)CCCC(C)Nc1ccnc2cc(Cl)ccc12` (stereo not shown) [chloroquine]?
plasma concentration at which no adverse reactions are observed [3]: 400 ng/mL; warning limit plasma concentration at which 80% of the subjects showed adverse effects [3]: 800 ng/mL; amount per puff in aerosol ([1]; 40 mg/mL chloroquine liquid formulation): 149.69 µg; EC50 [4]: 23.9 µM; median aerodynamic diameter of aerosol particles [5]: 1.3 μm; EC50 ([6]; block of COVID-19 infection in vitro, Wang et al., read-out: half-maximal effective concentration (EC50)): 1130 nM; in vitro EC50 ([6]; values from Wang et al.): 362 ng/mL; in vitro EC90 ([6]; values from Wang et al.): 2208 ng/mL; TEER ([7]; 50 puffs): very low TEER values for two replicates; TEER ([7]; 100 puffs): no overall effect; decomposition during thermal aerosolization [2]: no decomposition

From patent US20230398068A1 (priority 2020, published 2023)
